According to ChEMBL document CHEMBL1201862, “PubChem BioAssay data set” (2004):
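Each compound was tested at five concentrations against cells in 96-well plates for 48 hours. Here, GI50 denotes the concentration required for 50% inhibition of growth.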 Activity calls are given as the source filed them. No stated cut-off is given here; in the data, active = GI50 up to about 1.1 µM and inactive = higher.

Columns and labels:
Assay in all cases: DTP human tumour cell line panel, 48 h
[1] = tested on: OVCAR-8
[2] = tested on: ACHN
[3] = tested on: KM12
[4] = tested on: OVCAR-5
[5] = tested on: SK-MEL-28
[6] = tested on: SK-MEL-2
[7] = tested on: NCI-H226
[8] = tested on: LOX IMVI
[9] = tested on: HOP-92
[10] = tested on: K562
[11] = tested on: NCI-H522
[12] = tested on: SF-539
[13] = tested on: SW-620
[14] = tested on: SF-268
[15] = tested on: SNB-75
[16] = tested on: NCI-H460
[17] = tested on: MOLT-4
[18] = tested on: OVCAR-3
[19] = tested on: SK-MEL-5
[20] = tested on: SNB-19

| Structure (SMILES) | GI50 [1] | GI50 [2] | GI50 [3] | GI50 [4] | GI50 [5] | GI50 [6] | GI50 [7] | GI50 [8] | GI50 [9] | GI50 [10] | GI50 [11] | GI50 [12] | GI50 [13] | GI50 [14] | GI50 [15] | GI50 [16] | GI50 [17] | GI50 [18] | GI50 [19] | GI50 [20] |
| --- | --- | --- | --- | --- | --- | --- | --- | --- | --- | --- | --- | --- | --- | --- | --- | --- | --- | --- | --- | --- |
| C/C(=C1\N=C(c2ccccc2)OC1=O)c1ccccc1 | 70.8 µM (inactive) | > 100 µM (inactive) | > 100 µM (inactive) | > 100 µM (inactive) | > 100 µM (inactive) | > 100 µM (inactive) | > 100 µM (inactive) | > 100 µM (inactive) | > 100 µM (inactive) | > 100 µM (inactive) | > 100 µM (inactive) | > 100 µM (inactive) | > 100 µM (inactive) | > 100 µM (inactive) | 0.611 µM (active) | > 100 µM (inactive) | > 100 µM (inactive) | > 100 µM (inactive) | > 100 µM (inactive) | > 100 µM (inactive) |
| CC1C(=O)N(c2ccccc2)NC12CCCc1ccccc12 (stereo not given) | > 100 µM (inactive) | > 100 µM (inactive) | > 100 µM (inactive) | > 100 µM (inactive) | > 100 µM (inactive) | > 100 µM (inactive) | > 100 µM (inactive) | > 100 µM (inactive) | > 100 µM (inactive) | > 100 µM (inactive) | > 100 µM (inactive) | > 100 µM (inactive) | > 100 µM (inactive) | > 100 µM (inactive) | > 100 µM (inactive) | > 100 µM (inactive) | > 100 µM (inactive) | > 100 µM (inactive) | > 100 µM (inactive) | > 100 µM (inactive) |
| CC(C)(C)C(=O)OCC1C(=O)OCC1C(=O)N1Cc2cc3ccccc3nc2C1 (stereo not given) | 3.99 µM (inactive) | 2.36 µM (inactive) | 15.8 µM (inactive) | 10.5 µM (inactive) | 3.21 µM (inactive) | 8.59 µM (inactive) | 6.56 µM (inactive) | 4.34 µM (inactive) | 1.5 µM (inactive) | 0.728 µM (active) | 0.569 µM (active) | 4.46 µM (inactive) | 1.57 µM (inactive) | 8.91 µM (inactive) | 7.74 µM (inactive) | 3.93 µM (inactive) | 1.06 µM (active) | 4.07 µM (inactive) | 15.2 µM (inactive) | 18.3 µM (inactive) |
| CN(C)c1ccc(/C=C2/SC(=S)NC2=O)cc1 | > 100 µM (inactive) | > 100 µM (inactive) | 50.7 µM (inactive) | 21.9 µM (inactive) | > 100 µM (inactive) | > 100 µM (inactive) | > 100 µM (inactive) | > 100 µM (inactive) | > 100 µM (inactive) | > 100 µM (inactive) | > 100 µM (inactive) | > 100 µM (inactive) | > 100 µM (inactive) | > 100 µM (inactive) | 95.3 µM (inactive) | > 100 µM (inactive) | > 100 µM (inactive) | > 100 µM (inactive) | > 100 µM (inactive) | > 100 µM (inactive) |
| CCCS(=O)(=O)O | > 100 µM (inactive) | > 100 µM (inactive) | > 100 µM (inactive) | > 100 µM (inactive) | > 100 µM (inactive) | > 100 µM (inactive) | > 100 µM (inactive) | > 100 µM (inactive) | > 100 µM (inactive) | > 100 µM (inactive) | > 100 µM (inactive) | > 100 µM (inactive) | > 100 µM (inactive) | > 100 µM (inactive) | > 100 µM (inactive) | > 100 µM (inactive) | > 100 µM (inactive) | > 100 µM (inactive) | > 100 µM (inactive) | > 100 µM (inactive) |
